Among the data in patent US8680113B2, “BMI-1 protein expression modulators” (PTC Therapeutics, Inc., priority 2008, dated 2014) are IC50 values, retold here.

SMILES strings stand for the structures.

The assay has as its system Bmi-1. The assay is described as follows: Sandwich ELISA Assay (Bmi-1 ELISA in HT-1080 cells). Type of assay: cell-based, human. The gist of the method: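 Lysate Bmi-1 was quantified against a recombinant GST-Bmi-1 standard (0-8000 pg/mL) by sandwich ELISA read at OD450 with OD570 reference. The ELISA used mouse monoclonal capture, rabbit anti-Bmi-1, HRP anti-rabbit IgG and TMB. Before lysis, HT-1080 cells seeded at 8000/well were exposed to compounds for 40-48 h at 37°C with 0.5% final DMSO.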
Background: In an ELISA, binding on a coated surface is turned into a signal by an enzyme label.
As to `Cc1nc2ccccn2c1-c1ccnc(Nc2ccc(I)cc2)n1` [Cpd 119, N-(4-iodophenyl)-4-(2-methylimidazo[1,2-a]pyridin-3-yl)pyrimidin-2-amine], the half-maximal inhibitory concentration (IC50) (usually the concentration at which inhibition is half-maximal) was under 500 nM.
To `Cc1nc2ncccn2c1-c1ccnc(Nc2ccc(I)cc2)n1` [Cpd 120, N-(4-iodophenyl)-4-(2-methylimidazo[1,2-a]pyrimidin-3-yl)pyrimidin-2-amine] belongs under 500 nM; to `Cc1nc2ncccn2c1-c1nc(Nc2ccc(Br)cc2)sc1C` [Cpd 121, N-(4-bromophenyl)-5-methyl-4-(2-methylimidazo[1,2-a]pyrimidin-3-yl)-1,3-thiazol-2-amine], under 500 nM.
Molecule `Cc1nc2ncccn2c1-c1nc(Nc2ccc(I)cc2)sc1C` [Cpd 122, N-(4-iodophenyl)-5-methyl-4-(2-methylimidazo[1,2-a]pyrimidin-3-yl)-1,3-thiazol-2-amine] registered an IC50 of under 500 nM.
To `Cc1nc2ccccn2c1-c1ccnc(Nc2ccc3c(c2)OCO3)n1` [Cpd 123, N-(1,3-benzodioxol-5-yl)-4-(2-methylimidazo[1,2-a]pyridin-3-yl)pyrimidin-2-amine] belongs under 500 nM.
The result for `Cc1nc2ncccn2c1-c1ccnc(Nc2ccc3c(c2)OCO3)n1` [Cpd 124, N-(1,3-benzodioxol-5-yl)-4-(2-methylimidazo[1,2-a]pyrimidin-3-yl)pyrimidin-2-amine] reads under 500 nM; that for `Cc1nc2ncccn2c1-c1ccnc(N(C)c2ccc(I)cc2)n1` [Cpd 125, N-(4-iodophenyl)-N-methyl-4-(2-methylimidazo[1,2-a]pyrimidin-3-yl)pyrimidin-2-amine], under 500 nM.
Regarding `Cc1nc2ncccn2c1-c1ccnc(Nc2ccc(Br)cc2)n1` [Cpd 126, N-(4-bromophenyl)-4-(2-methylimidazo[1,2-a]pyrimidin-3-yl)pyrimidin-2-amine], the IC50 is under 500 nM.
In turn, `Cc1nc2ccccn2c1-c1ccnc(Nc2cccc(Br)c2)n1` [Cpd 127, N-(3-bromophenyl)-4-(2-methylimidazo[1,2-a]pyridin-3-yl)pyrimidin-2-amine] yielded an IC50 of under 500 nM.
To `Cc1nc2ccccn2c1-c1ccnc(Nc2ccc(N(C)C)cc2)n1` [Cpd 129, N,N-dimethyl-N′-[4-(2-methylimidazo[1,2-a]pyridin-3-yl)pyrimidin-2-yl]benzene-1,4-diamine] belongs under 500 nM; to `CCN(CC)c1ccc(Nc2nccc(-c3c(C)nc4ccccn34)n2)cc1` [Cpd 130, N,N-diethyl-N′-[4-(2-methylimidazo[1,2-a]pyridin-3-yl)pyrimidin-2-yl]benzene-1,4-diamine], under 500 nM; to `CC(=O)c1ccc(Nc2nccc(-c3c(C)nc4ncccn34)n2)cc1` [Cpd 131, 1-(4-{[4-(2-methylimidazo[1,2-a]pyrimidin-3-yl)pyrimidin-2-yl]amino}phenyl)ethanone], under 500 nM.
The result for `Cc1nc2ccc(Cl)cn2c1-c1csc(Nc2ccc(Br)cc2Cl)n1` [Cpd 132, N-(4-bromo-2-chlorophenyl)-4-(6-chloro-2-methylimidazo[1,2-a]pyridin-3-yl)-1,3-thiazol-2-amine] reads under 500 nM; that for `Cc1nc2ccc(Cl)cn2c1-c1csc(Nc2ccccc2)n1` [Cpd 133, 4-(6-chloro-2-methylimidazo[1,2-a]pyridin-3-yl)-N-phenyl-1,3-thiazol-2-amine], under 500 nM.
The result for `Clc1ccc2ncc(-c3csc(Nc4c(Br)cc(Br)cc4Br)n3)n2c1` [Cpd 135, 4-(6-chloroimidazo[1,2-a]pyridin-3-yl)-N-(2,4,6-tribromophenyl)-1,3-thiazol-2-amine] reads under 500 nM; that for `Clc1cc(Cl)c(Nc2nc(-c3cnc4ccc(Cl)cn34)cs2)c(Cl)c1` [Cpd 136, 4-(6-chloroimidazo[1,2-a]pyridin-3-yl)-N-(2,4,6-trichlorophenyl)-1,3-thiazol-2-amine], 500 to 1000 nM; that for `Cc1nc2ccccn2c1-c1ccnc(N(C)c2ccc(N(C)C)cc2)n1` [Cpd 137, N,N,N′-trimethyl-N′-[4-(2-methylimidazo[1,2-a]pyridin-3-yl)pyrimidin-2-yl]benzene-1,4-diamine], under 500 nM.
`CCN(CC)c1ccc(N(C)c2nccc(-c3c(C)nc4ccccn34)n2)cc1` [Cpd 138, N,N-diethyl-N′-methyl-N′-[4-(2-methylimidazo[1,2-a]pyridin-3-yl)pyrimidin-2-yl]benzene-1,4-diamine] returned an IC50 of under 500 nM.
To `Cc1nc2ccccn2c1-c1ccnc(N(C)c2ccc3c(c2)OCO3)n1` [Cpd 139, N-(1,3-benzodioxol-5-yl)-N-methyl-4-(2-methylimidazo[1,2-a]pyridin-3-yl)pyrimidin-2-amine] belongs under 500 nM; to `Cc1nc2ncccn2c1-c1ccnc(N(C)c2ccccc2Cl)n1` [Cpd 140, N-(2-chlorophenyl)-N-methyl-4-(2-methylimidazo[1,2-a]pyrimidin-3-yl)pyrimidin-2-amine], under 500 nM.
Turning to `COc1cc(C)c(Nc2nccc(-c3c(C)nc4ccccn34)n2)c(C)c1` [Cpd 141, N-(4-methoxy-2,6-dimethylphenyl)-4-(2-methylimidazo[1,2-a]pyridin-3-yl)pyrimidin-2-amine], the half-maximal inhibitory concentration (IC50) was under 500 nM.
`CCOc1ccc(N(C)c2nccc(-c3c(C)nc4ccccn34)n2)cc1` [Cpd 142, N-(4-ethoxyphenyl)-N-methyl-4-(2-methylimidazo[1,2-a]pyridin-3-yl)pyrimidin-2-amine] showed an IC50 of under 500 nM.
The result for `Cc1nc2ccccn2c1-c1ccnc(N(C)c2ccc(I)cc2)n1` [Cpd 143, N-(4-iodophenyl)-N-methyl-4-(2-methylimidazo[1,2-a]pyridin-3-yl)pyrimidin-2-amine] reads 500 to 1000 nM; that for `CCc1nc2ncccn2c1-c1csc(Nc2ccc(OC)cc2)n1` [Cpd 144, 4-(2-ethylimidazo[1,2-a]pyrimidin-3-yl)-N-(4-methoxyphenyl)-1,3-thiazol-2-amine], under 500 nM.
To `CCc1nc2ncccn2c1-c1csc(Nc2ccc(N(C)C)cc2)n1` [Cpd 145, N′-[4-(2-ethylimidazo[1,2-a]pyrimidin-3-yl)-1,3-thiazol-2-yl]-N,N-dimethylbenzene-1,4-diamine] belongs under 500 nM; to `CCc1nc2ncccn2c1-c1csc(Nc2c(Br)cc(OC)cc2Br)n1` [Cpd 146, N-(2,6-dibromo-4-methoxyphenyl)-4-(2-ethylimidazo[1,2-a]pyrimidin-3-yl)-1,3-thiazol-2-amine], under 500 nM.
On to `CCc1nc2ncccn2c1-c1csc(Nc2ccc(Cl)cc2)n1` [Cpd 147, N-(4-chlorophenyl)-4-(2-ethylimidazo[1,2-a]pyrimidin-3-yl)-1,3-thiazol-2-amine], for which the IC50 is under 500 nM.
Consider `CCc1nc2ncccn2c1-c1csc(Nc2ccc(Br)cc2)n1` [Cpd 148, N-(4-bromophenyl)-4-(2-ethylimidazo[1,2-a]pyrimidin-3-yl)-1,3-thiazol-2-amine], for which the IC50 is under 500 nM.
To `CCc1nc2ncccn2c1-c1csc(Nc2ccc(I)cc2)n1` [Cpd 149, 4-(2-ethylimidazo[1,2-a]pyrimidin-3-yl)-N-(4-iodophenyl)-1,3-thiazol-2-amine] belongs under 500 nM; to `CCc1nc2ncccn2c1-c1csc(Nc2ccc(C(C)=O)cc2)n1` [Cpd 150, 1-(4-{[4-(2-ethylimidazo[1,2-a]pyrimidin-3-yl)-1,3-thiazol-2-yl]amino}phenyl)ethanone], under 500 nM.
The result for `CCc1nc2ncccn2c1-c1csc(Nc2ccc3c(c2)OCO3)n1` [Cpd 151, N-(1,3-benzodioxol-5-yl)-4-(2-ethylimidazo[1,2-a]pyrimidin-3-yl)-1,3-thiazol-2-amine] reads under 500 nM.
The result for `CCc1nc2ncccn2c1-c1csc(Nc2ccc(OC)c(F)c2)n1` [Cpd 152, 4-(2-ethylimidazo[1,2-a]pyrimidin-3-yl)-N-(3-fluoro-4-methoxyphenyl)-1,3-thiazol-2-amine] reads under 500 nM.
`CCc1nc2ncccn2c1-c1csc(Nc2ccc(OC)c(Cl)c2)n1` [Cpd 153, N-(3-chloro-4-methoxyphenyl)-4-(2-ethylimidazo[1,2-a]pyrimidin-3-yl)-1,3-thiazol-2-amine] registered an IC50 of under 500 nM.
The result for `FC(F)(F)c1nc2ncccn2c1-c1csc(Nc2ccc3c(c2)OCO3)n1` [Cpd 154, N-(1,3-benzodioxol-5-yl)-4-[2-(trifluoromethyl)imidazo[1,2-a]pyrimidin-3-yl]-1,3-thiazol-2-amine] reads under 500 nM.
The result for `COc1ccc(Nc2nc(-c3c(C)nc4ccc(F)cn34)cs2)cc1F` [Cpd 155, N-(3-fluoro-4-methoxyphenyl)-4-(6-fluoro-2-methylimidazo[1,2-a]pyridin-3-yl)-1,3-thiazol-2-amine] reads under 500 nM; that for `Cc1nc2ccc(F)cn2c1-c1csc(Nc2ccc(I)cc2)n1` [Cpd 156, 4-(6-fluoro-2-methylimidazo[1,2-a]pyridine-3-yl)-N-(4-iodophenyl)-1,3-thiazol-2-amine], under 500 nM; that for `Cc1nc2ccc(F)cn2c1-c1csc(Nc2ccc(N(C)C)cc2)n1` [Cpd 157, N′-[4-(6-fluoro-2-methylimidazo[1,2-a]pyridin-3-yl)-1,3-thiazol-2-yl]-N,N-dimethylbenzene-1,4-diamine], under 500 nM.
To `Cc1nc2ccc(F)cn2c1-c1csc(Nc2ccc3c(c2)OCO3)n1` [Cpd 158, N-(1,3-benzodioxol-5-yl)-4-(6-fluoro-2-methylimidazo[1,2-a]pyridin-3-yl)-1,3-thiazol-2-amine] belongs under 500 nM; to `CC(=O)c1ccc(Nc2nc(-c3c(C)nc4ccc(F)cn34)cs2)cc1` [Cpd 159, 1-(4-{[4-(6-fluoro-2-methylimidazo[1,2-a]pyridin-3-yl)-1,3-thiazol-2-yl]amino}phenyl)ethanone], under 500 nM; to `COc1ccc(Nc2nc(-c3c(C)nc4ccc(F)cn34)cs2)cc1` [Cpd 160, 4-(6-fluoro-2-methylimidazo[1,2-a]pyridin-3-yl)-N-(4-methoxyphenyl)-1,3-thiazol-2-amine], under 500 nM.
